Where two headings read alike, the source gives them in different places.
Key:
[1] = tested on: Xenopus laevis testis explants (round spermatids); test: In vitro spermatid micronucleus assay (percent round spermatids with micronuclei in cultured testis explants); conditions: for relative in vitro clastogenic potency: day 30 micronucleus counts vs product of mutagen dose and exposure time (FIG. 7)
[2] = tested on: chromosome aberrations, meiotic prophase; conditions: male mouse; cited from earlier work

Structure (SMILES): Cc1c2ccccc2c(C)c2c1ccc1ccccc12 [DMBA, 9,10-dimethyl-1,2-benzanthracene]
- Percent Round Spermatids With Micronuclei ([1]; DMBA 10^-4 moles/L, 24 hr incubation, post-DMBA culture Day 2): .16 +/- .04%
- Percent Round Spermatids With Micronuclei ([1]; DMBA 10^-4 moles/L, 24 hr incubation, post-DMBA culture Day 5): .15 +/- .06%
- Percent Round Spermatids With Micronuclei ([1]; DMBA 10^-4 moles/L, 24 hr incubation, post-DMBA culture Day 8): .17 +/- .05%
- Percent Round Spermatids With Micronuclei ([1]; DMBA 10^-4 moles/L, 24 hr incubation, post-DMBA culture Day 15): .48 +/- .12%
- Percent Round Spermatids With Micronuclei ([1]; DMBA 10^-4 moles/L, 24 hr incubation, post-DMBA culture Day 22): .28 +/- .12%
- Percent Round Spermatids With Micronuclei ([1]; DMBA 10^-4 moles/L, 24 hr incubation, post-DMBA culture Day 29, p < .001): 1.07 +/- .14%
- fold increase in spermatid micronucleus frequency, 72 hr relative to 24 hr incubation ([1]; DMBA 10^-5 M (2.6 mg/L), culture day 30): 3 fold
- Percent Round Spermatids With Micronuclei ([1]; DMBA 10^-5 moles/L, 24 hr incubation, post-DMBA culture Day 2): .19 +/- .01%
- Percent Round Spermatids With Micronuclei ([1]; DMBA 10^-5 moles/L, 24 hr incubation, post-DMBA culture Day 5): .16 +/- .06%
- Percent Round Spermatids With Micronuclei ([1]; DMBA 10^-5 moles/L, 24 hr incubation, post-DMBA culture Day 8): .39 +/- .28%
- Percent Round Spermatids With Micronuclei ([1]; DMBA 10^-5 moles/L, 24 hr incubation, post-DMBA culture Day 15): .20 +/- .001%
- Percent Round Spermatids With Micronuclei ([1]; DMBA 10^-5 moles/L, 24 hr incubation, post-DMBA culture Day 22): .48 +/- .13%
- Percent Round Spermatids With Micronuclei ([1]; DMBA 10^-5 moles/L, 24 hr incubation, post-DMBA culture Day 29, p < .01): .83 +/- .06%
- Percent Round Spermatids With Micronuclei ([1]; DMBA 10^-6 moles/L, 24 hr incubation, post-DMBA culture Day 2): .28 +/- .13%
- Percent Round Spermatids With Micronuclei ([1]; DMBA 10^-6 moles/L, 24 hr incubation, post-DMBA culture Day 5): .15 +/- .06%
- Percent Round Spermatids With Micronuclei ([1]; DMBA 10^-6 moles/L, 24 hr incubation, post-DMBA culture Day 8): .16 +/- .06%
- Percent Round Spermatids With Micronuclei ([1]; DMBA 10^-6 moles/L, 24 hr incubation, post-DMBA culture Day 15): .39 +/- .01%
- Percent Round Spermatids With Micronuclei ([1]; DMBA 10^-6 moles/L, 24 hr incubation, post-DMBA culture Day 22): .30 +/- .14%
- Percent Round Spermatids With Micronuclei ([1]; DMBA 10^-6 moles/L, 24 hr incubation, post-DMBA culture Day 29, p < .05): .68 +/- .01%
- Percent Round Spermatids With Micronuclei ([1]; DMBA 10^-7 moles/L, 24 hr incubation, 0.1% DMSO, post-DMBA culture Day 2, mean +/- s.d., n=2): .29 +/- .14%
- Percent Round Spermatids With Micronuclei ([1]; DMBA 10^-7 moles/L, 24 hr incubation, post-DMBA culture Day 5): .16 +/- .06%
- Percent Round Spermatids With Micronuclei ([1]; DMBA 10^-7 moles/L, 24 hr incubation, post-DMBA culture Day 8): .21 +/- .02%
- Percent Round Spermatids With Micronuclei ([1]; DMBA 10^-7 moles/L, 24 hr incubation, post-DMBA culture Day 15): .28 +/- .13%
- Percent Round Spermatids With Micronuclei ([1]; DMBA 10^-7 moles/L, 24 hr incubation, post-DMBA culture Day 22): .19 +/- .02%
- Percent Round Spermatids With Micronuclei ([1]; DMBA 10^-7 moles/L, 24 hr incubation, post-DMBA culture Day 29): .36 +/- .05%
- increase in spermatid micronucleus frequency ([1]; DMBA, 24 hr exposure): dose-dependent increase in the spermatid micronucleus frequency only after 29 additional days of culture
- Percent Round Spermatids With Micronuclei ([1]; Table 4: DMBA 10^-5 moles/L, 24 hr incubation, subsequent culture 29 days, P < .05): .86 +/- .10%
- Percent Round Spermatids With Micronuclei ([1]; Table 4: DMBA 10^-5 moles/L, 72 hr incubation, subsequent culture 27 days, P < .001): 2.52 +/- .44%
- relative in vitro clastogenic potency [1]: AD>CP>DMBA

Structure (SMILES): COc1cccc2c1C(=O)c1c(O)c3c(c(O)c1C2=O)C[C@@](O)(C(=O)CO)C[C@@H]3O[C@H]1C[C@H](N)[C@H](O)[C@H](C)O1 [AD, adriamycin]
- concentration at which assay was sensitive to clastogenesis ([1]; AD, 4 hr exposure, day 22, = 0.58 mg/L): 10^-6 M
- concentration at which assay was sensitive to clastogenesis ([1]; AD, 4 hr exposure, day 30, = 58 μg/L): 10^-7 M
- increase in spermatid micronuclei ([1]; AD, 4 hr exposure, days 22 and 30, unmodified XSCM (Table 6)): dose-dependent increase in spermatid micronuclei on both days 22 and 30
- spermatocyte stages most sensitive to clastogenesis ([1]; AD, 4 hrs exposure (Table 5)): leptotene (day 23) and premeiotic S or type B spermatogonia (day 30)
- increase in spermatid micronuclei ([1]; AD, 4 hrs exposure, each time point (Table 5)): dose-dependent increases in spermatid micronuclei at each time point examined
- increase in assay sensitivity on increasing exposure ([1]; AD, exposure increased from 4 hrs. to 12 hrs.): 1.7 fold

Structure (SMILES): O=P1(N(CCCl)CCCl)NCCCO1 (stereo not shown) [CP, cyclophosphamide]
- induction of chromosome aberrations [2]: induction of chromosome aberrations throughout meiotic prophase
- Micronucleus % [1]: .15 +/- .06%
- induction of spermatid micronuclei relative to concurrent controls [1]: did not result in a significant induction of spermatid micronuclei
- Percent Round Spermatids With Micronuclei ([1]; CP 10^-4 moles/L, 24 hr incubation, post-CP culture Day 2): .30 +/- .14%
- Percent Round Spermatids With Micronuclei ([1]; CP 10^-4 moles/L, 24 hr incubation, post-CP culture Day 5): .29 +/- .14%
- Percent Round Spermatids With Micronuclei ([1]; CP 10^-4 moles/L, 24 hr incubation, post-CP culture Day 8): .29 +/- .13%
- Percent Round Spermatids With Micronuclei ([1]; CP 10^-4 moles/L, 24 hr incubation, post-CP culture Day 21): .25 +/- .07%
- Percent Round Spermatids With Micronuclei ([1]; CP 10^-4 moles/L, 24 hr incubation, post-CP culture Day 29, p < .001): 2.70 +/- .13%
- Micronucleus % ([1]; CP 10^-4 moles/L, 72 hr incubation, cultured 6 days after): .27 +/- .11%
- Percent Round Spermatids With Micronuclei ([1]; CP 10^-5 moles/L, 24 hr incubation, post-CP culture Day 2): .20 +/- .01%
- Percent Round Spermatids With Micronuclei ([1]; CP 10^-5 moles/L, 24 hr incubation, post-CP culture Day 5): .19 +/- .01%
- Percent Round Spermatids With Micronuclei ([1]; CP 10^-5 moles/L, 24 hr incubation, post-CP culture Day 8): .29 +/- .14%
- Percent Round Spermatids With Micronuclei ([1]; CP 10^-5 moles/L, 24 hr incubation, post-CP culture Day 15): .38 +/- .26%
- Percent Round Spermatids With Micronuclei ([1]; CP 10^-5 moles/L, 24 hr incubation, post-CP culture Day 21): .41 +/- .16%
- Percent Round Spermatids With Micronuclei ([1]; CP 10^-5 moles/L, 24 hr incubation, post-CP culture Day 29, P < .01): 1.90 +/- .43%
- Micronucleus % ([1]; CP 10^-5 moles/L, 72 hr incubation, cultured 6 days after): .19 +/- .01%
- Percent Round Spermatids With Micronuclei ([1]; CP 10^-6 moles/L, 24 hr incubation, post-CP culture Day 2): .37 +/- .28%
- Percent Round Spermatids With Micronuclei ([1]; CP 10^-6 moles/L, 24 hr incubation, post-CP culture Day 5): .37 +/- .29%
- Percent Round Spermatids With Micronuclei ([1]; CP 10^-6 moles/L, 24 hr incubation, post-CP culture Day 8): .15 +/- .06%
- Percent Round Spermatids With Micronuclei ([1]; CP 10^-6 moles/L, 24 hr incubation, post-CP culture Day 15): .49 +/- .13%
- Percent Round Spermatids With Micronuclei ([1]; CP 10^-6 moles/L, 24 hr incubation, post-CP culture Day 21): .35 +/- .07%
- Percent Round Spermatids With Micronuclei ([1]; CP 10^-6 moles/L, 24 hr incubation, post-CP culture Day 29, p < .05): .99 +/- .01%
- Micronucleus % ([1]; CP 10^-6 moles/L, 72 hr incubation, cultured 6 days after): .14 +/- .06%
- induction of spermatid micronuclei ([1]; CP, 24 hr incubation, 29 days after exposure): dose-dependent increase in spermatid micronuclei
- lowest effective dose (spermatid micronuclei) ([1]; CP, 24 hr incubation, 29 days after exposure, = […]): 10^-6 M
- increase in micronuclei in spermatids from pachytene through diplotene stages ([1]; CP, 72 hr incubation, 6 days culture): did not result in significant increases in micronuclei
- stage restriction of clastogenesis ([1]; CP, cultured testes): restriction of CP clastogenesis to premeiotic stages
- stage of cells affected (aberrations) ([1]; CP, in vitro exposure of testis explants): induces aberrations in cells that require 24 to 30 days to develop into round spermatids
- relative in vitro clastogenic potency [1]: AD>CP>DMBA

Source: US4929542A, “In vitro screening test for mutagenicity and genotoxicity during spermatogenesis” (Cornell Research Foundation, Inc., priority 1987, dated 1990)
